In brackets after ≈: the same amount, converted by molar mass.
How the values were obtained:
[1] = test system: dengue virus type 2; experiment: Antiviral activity against DENV2; type: functional, organism-based
[2] = test system: Dengue virus; experiment: Antiviral activity against DENV; type: functional, organism-based
[3] = Selectivity Index, ratio of CC50 for African green monkey Vero cells to EC50 for antiviral activity against DENV2 infected in African green monkey Vero cells; type: toxicity; conditions: Vero cells (CC50) and DENV2-infected Vero cells (EC50)
[4] = Cytotoxicity against African green monkey Vero cells assessed as cell growth inhibition after 48 hrs by MTT assay; type: toxicity, cell-based; conditions: chlorocebus sabaeus
[5] = test system: dengue virus type 2; experiment: Antiviral activity against DENV2 infected in African green monkey Vero cells assessed as inhibition of viral replication measured after 48 hrs by RT-PCR analysis; type: functional, organism-based
[6] = test system: dengue virus type 2; experiment: Antiviral activity against DENV2 infected in hamster BHK-21 cells assessed as inhibition of virus induced cytopathic effect incubated for 45 mins by plaque formation assay; type: functional, organism-based; conditions: BHK-21, 0.75 h
[7] = test system: Aedes aegypti; experiment: Larvicidal activity against Aedes aegypti assessed as mortality rate at 5 ug per mosquito measured after 24 hrs relative to control; type: functional; conditions: dose 5 µg
[8] = target: Genome polyprotein (dengue virus type 2) (UniProt P29990); experiment: Inhibition of DENV2 NS2B-NS3 protease at 50 uM using Bz-Nle-Lys-Arg-Arg-AMC as substrate by spectrofluorometer analysis relative to control
[9] = Inhibition of DENV-2 NS5 RdRp polymerase expressed in Escherichia coli Rosetta2(DE3) measured after 1 hr by [alpha-32P]UTP-labeled radio-probe based scintillation counter analysis; design: species or system dengue virus type 2
[10] = target: Genome polyprotein (dengue virus type 2) (UniProt P29990); experiment: Inhibition of DENV2 NS2B-NS3 protease at 50 uM using Bz-Nle-Lys-Arg-Arg-AMC as substrate measured after 30 mins by spectrofluorometer analysis relative to control
[11] = target: Genome polyprotein (dengue virus type 2, UniProt P29990); experiment: Inhibition of DENV2 NS2B-NS3 protease using Bz-Nle-Lys-Arg-Arg-AMC as substrate measured after 30 mins by spectrofluorometer analysis
[12] = Inhibition of DENV1 (US/Hawaii/1944) RdRP expressed in Escherichia coli Rosetta2(DE3) incubated for 180 mins in presence of ATP,GTP,and UTP by scintillation counter analysis; design: species or system dengue virus type 1
[13] = Inhibition of DENV3 (MY00-22366) RdRP expressed in Escherichia coli Rosetta2(DE3) incubated for 180 mins in presence of ATP,GTP,and UTP by scintillation counter analysis; design: species or system dengue virus type 3
[14] = test system: dengue virus type 1; experiment: Antiviral activity against DENV1 infected in hamster BHK-21 cells assessed as inhibition of virus induced cytopathic effect by viral tox-glo assay; type: functional, organism-based
[15] = Inhibition of DENV4 (MY01-22713) RdRP expressed in Escherichia coli Rosetta2(DE3) incubated for 180 mins in presence of ATP,GTP,and UTP by scintillation counter analysis; design: species or system dengue virus type 4
[16] = test system: dengue virus type 3; experiment: Antiviral activity against DENV3 infected in hamster BHK-21 cells assessed as inhibition of virus induced cytopathic effect by viral tox-glo assay; type: functional, organism-based
[17] = test system: dengue virus type 4; experiment: Antiviral activity against DENV4 infected in hamster BHK-21 cells assessed as inhibition of virus induced cytopathic effect by viral tox-glo assay; type: functional, organism-based
[18] = test system: dengue virus type 2; experiment: Antiviral activity against DENV2 infected in hamster BHK-21 cells assessed as inhibition of virus induced cytopathic effect by viral tox-glo assay; type: functional, organism-based
[19] = Inhibition of DENV2 His6-tagged recombinant NGC RdRP expressed in Escherichia coli Rosetta2(DE3) measured after 180 mins in presence of NTP by scintillation counter analysis; design: species or system dengue virus type 2
[20] = test system: Aedes aegypti; experiment: Larvicidal activity against Aedes aegypti assessed as mortality measured upto 48 hrs; type: functional; conditions: for LC50: Aedes aegypti
[21] = test system: dengue virus type 1; experiment: Antiviral activity against DENV1 infected in hamster BHK-21 cells assessed as inhibition of virus induced cytopathic effect incubated for 45 mins by focus-formation assay; type: functional, organism-based; conditions: BHK-21, 0.75 h
[22] = test system: Aedes aegypti; experiment: Larvicidal activity against Aedes aegypti assessed as lethal dose per mosquito measured for 24 hrs; type: functional
[23] = test system: dengue virus type 2; experiment: Antiviral activity against DENV2 infected in asian tiger mosquito C6/36 cells assessed as inhibition of virus induced cytopathic effect measured after 96 hrs by methylene blue staining based microscopic analysis; type: functional, organism-based; conditions: C6/36, 96 h
[24] = Cytotoxicity against hamster BHK-21 cells assessed as cell growth inhibition after 48 hrs by MTT assay; type: toxicity, cell-based, Mesocricetus auratus
[25] = Selectivity Index, ratio of CC50 for hamster BHK-21 cells to EC50 for antiviral activity against DENV2 infected in asian tiger mosquito C6/36 cells; type: toxicity; conditions: BHK-21 cells (CC50) and DENV2-infected C6/36 cells (EC50)
[26] = test system: dengue virus type 4; experiment: Antiviral activity against DENV4 infected in hamster BHK-21 cells assessed as inhibition of virus induced cytopathic effect incubated for 45 mins by focus-formation assay; type: functional, organism-based; conditions: BHK-21, 0.75 h
[27] = test system: dengue virus type 3; experiment: Antiviral activity against DENV3 infected in African green monkey Vero cells assessed as inhibition of virus induced cytopathic effect incubated for 45 mins by focus-formation assay; type: functional, organism-based; conditions: 0.75 h

Question: For `CC(C)(C)[Si](C)(C)Oc1ccc(C2N(Nc3ccc([N+](=O)[O-])cc3)C(=O)[C@@H]3Cc4ccccc4N23)cc1` (stereo not given in full), which EC50 [1] is on record?
Answer: 4.79 µM

Question: Which results are given for `O=C1N=Cc2ccc(Nc3ccnc4ccc(Br)cc34)cc21`?
Answer: EC50 [2]: 0.64 µM; EC90 [2]: 1.5 µM

Question: With `CC(C)CC(=O)c1c(O)c2c(c3c(-c4ccccc4)cc(=O)oc13)OC(C)(C)C=C2` [ISOMAMMEIGIN] as the compound, how does the selectivity ratio [3] read?
Answer: 328

Question: What about the CC50 at 48 h [4] of the same compound?
Answer: 3150 µg/mL (≈ 7790 µM)

Question: And the EC50 [5]?
Answer: 9.6 µg/mL (≈ 23.7 µM)

Question: With `Cc1cc(OC(F)(F)F)ccc1Nc1ccnc(Nc2ccccc2OC(F)(F)F)n1` as the compound, how does the IC50 [6] read?
Answer: 5 µM

Question: With `CS(=O)(=O)N1CCN(c2nnc(-c3ccc(F)cc3)o2)C1=O` as the compound, how does the Activity [7] read?
Answer: 70%

Question: With `COc1ccc([C@@H]2N(Nc3ccc([N+](=O)[O-])cc3)C(=O)[C@@H]3Cc4ccccc4N23)cc1OC` as the compound, how does the EC50 [1] read?
Answer: 9.35 µM

Question: Which inhibition [8] does the source give for `O=c1c2ccccc2sn1-c1ccc(Br)cc1` here?
Answer: 80%

Question: For `CS(=O)(=O)N1CCN(c2nnc(-c3ccccc3)o2)C1=O`, which Activity [7] is on record?
Answer: 73.3%

Question: Which IC50 [9] does the source give for `O=C1N/C(=N\c2nnc(-c3cccnc3)s2)S/C1=C\c1cccc(F)c1` here?
Answer: 5.5 µM

Question: With `O=C1c2ccccc2C(=O)N1CCCSc1nnc(-c2ccc(NS(=O)(=O)c3ccc(C(F)(F)F)cc3)cc2)o1` as the compound, how does the inhibition [10] read?
Answer: 99.9%

Question: What about the IC50 [11] of the same compound?
Answer: 13.9 µM

Question: For `O=c1c2ccccc2sn1-c1ccccc1[N+](=O)[O-]`, which inhibition [8] is on record?
Answer: 72%

Question: Which IC50 [12] does the source give for `O=C(NO)c1ncc(CS(=O)(=O)c2ccccc2)c(CO)c1O` here?
Answer: 5.7 µM

Question: What about the IC50 [13] of the same compound?
Answer: 6.7 µM

Question: What about the EC50 [14] of the same compound?
Answer: 2.7 µM

Question: What about the IC50 [15] of the same compound?
Answer: 5 µM

Question: What about the EC50 [16] of the same compound?
Answer: 2.7 µM

Question: And the EC50 [17]?
Answer: 2.2 µM

Question: What about the EC50 [18] of the same compound?
Answer: 2.8 µM

Question: What about the IC50 [19] of the same compound?
Answer: 6 µM

Question: With `OCCN1CCN(c2nccc(Nc3ccc(-c4ccccc4)cc3)n2)CC1` as the compound, how does the LC90 [20] read?
Answer: 30.13 µM

Question: What about the LC50 [20] of the same compound?
Answer: 19.9 µM

Question: With `Cc1[nH]c2c(C(=O)O)cccc2c1C` as the compound, how does the LC90 [20] read?
Answer: >528.51 µM

Question: And the LC50 [20]?
Answer: > 854 µM

Question: For `FC(F)(F)Oc1ccc(Nc2ccnc(Nc3cccc(OC(F)(F)F)c3)n2)cc1`, which IC50 [21] is on record?
Answer: 4 µM

Question: For `O=C1N/C(=N\c2nnc(-c3ccccc3F)s2)S/C1=C\c1cccc(F)c1`, which IC50 [9] is on record?
Answer: 7.2 µM

Question: Which inhibition [8] does the source give for `O=c1c2ccccc2sn1-c1c(Cl)cccc1Cl` here?
Answer: 94%

Question: Which EC50 [2] does the source give for `Fc1cc2cn[nH]c2cc1Nc1ccnc2ccc(Br)cc12` here?
Answer: 0.69 µM

Question: What about the EC90 [2] of the same compound?
Answer: 4 µM

Question: For `O=C1N/C(=N\c2nnc(-c3cccc(F)c3)s2)S/C1=C\c1c(Cl)cccc1Cl`, which IC50 [9] is on record?
Answer: 5.8 µM

Question: With `CCCc1cc(=O)oc2c(C(=O)CC(C)C)c(O)c(CC=C(C)C)c(O)c12` as the compound, how does the selectivity ratio [3] read?
Answer: 212

Question: And the CC50 at 48 h [4]?
Answer: 550 µg/mL (≈ 1480 µM)

Question: And the EC50 [5]?
Answer: 2.6 µg/mL (≈ 6.98 µM)

Question: Which EC50 [2] does the source give for `Oc1cccc(Nc2ccnc3ccc(Br)cc23)c1` here?
Answer: 0.63 µM

Question: Which inhibition [8] does the source give for `O=c1c2ccccc2sn1-c1ccccc1Cl` here?
Answer: 94%

Question: For `O=c1c2ccccc2sn1-c1ccccc1O`, which inhibition [8] is on record?
Answer: 89%

Question: For `Cc1ccc(S(=O)(=O)Nc2ccc(-c3nnc(SCc4ccccc4C(F)(F)F)o3)cc2)cc1`, which inhibition [10] is on record?
Answer: 80.8%

Question: And the IC50 [11]?
Answer: 24 µM

Question: With `CS(=O)(=O)N1CCN(c2nnc(-c3ccc(Br)cc3)o2)C1=O` as the compound, how does the Activity [7] read?
Answer: 86.7%

Question: What about the LD50 [22] of the same compound?
Answer: 3.55 µg

Question: With `COc1cccc(Nc2ccnc3ccc(C(F)(F)F)cc23)c1` as the compound, how does the EC50 [2] read?
Answer: 0.82 µM

Question: Which EC50 [23] does the source give for `Cc1ccc(-c2nc3nc4c(c(N5CCN(Cc6ccc7c(c6)OCO7)CC5)n3n2)CCC4)cc1` here?
Answer: 4.5 µM

Question: What about the CC50 at 48 h [24] of the same compound?
Answer: 66 µM

Question: What about the selectivity ratio [25] of the same compound?
Answer: 14.7

Question: With `CNc1cccc(Nc2ccnc3ccc(Br)cc23)c1` as the compound, how does the EC50 [2] read?
Answer: 0.24 µM

Question: Which inhibition [10] does the source give for `Cc1ccc(S(=O)(=O)Nc2ccc(-c3nnc(SCc4ccc(C(F)(F)F)cc4)o3)cc2)cc1` here?
Answer: 83.9%

Question: What about the IC50 [11] of the same compound?
Answer: 25.2 µM

Question: What does the source list for `CS(=O)(=O)N1CCN(c2nnc(-c3ccc(Cl)cc3Cl)o2)C1=O`?
Answer: Activity [7]: 86.7%; LD50 [22]: 2.39 µg

Question: With `Cc1cc([N+](=O)[O-])ccc1-n1sc2ccccc2c1=O` as the compound, how does the inhibition [8] read?
Answer: 92%

Question: With `O=C1N/C(=N\c2nnc(-c3cccc(F)c3)s2)S/C1=C\c1cccc(F)c1` as the compound, how does the IC50 [9] read?
Answer: 2.3 µM

Question: With `O=C1N/C(=N\c2nnc(-c3ccccc3Cl)s2)S/C1=C\c1cccc(F)c1` as the compound, how does the IC50 [9] read?
Answer: 2.1 µM

Question: With `Cc1[nH]c2ccc(Br)cc2c1C` as the compound, how does the LC90 [20] read?
Answer: 14.74 µM

Question: And the LC50 [20]?
Answer: 10.6 µM

Question: Which inhibition [10] does the source give for `O=C1c2ccccc2C(=O)N1CCCCSc1nnc(-c2ccc(NS(=O)(=O)c3ccc(C(F)(F)F)cc3)cc2)o1` here?
Answer: 77.6%

Question: What about the IC50 [11] of the same compound?
Answer: 15.1 µM

Question: For `FC(F)(F)Oc1ccccc1Nc1nccc(Nc2ccc(C(F)(F)F)cc2)n1`, which IC50 [26] is on record?
Answer: 5 µM

Question: For `FC(F)(F)Oc1cccc(Nc2ccnc(Nc3cccc(OC(F)(F)F)c3)n2)c1`, which IC50 [27] is on record?
Answer: 5 µM

Question: Which IC50 [6] does the source give for `FC(F)(F)Oc1ccc(Nc2ccnc(Nc3ccccc3OC(F)(F)F)n2)cc1` here?
Answer: 5 µM

Question: Which IC50 [6] does the source give for `FC(F)(F)Oc1cccc(Nc2nccc(Nc3ccc(C(F)(F)F)cc3)n2)c1` here?
Answer: 5 µM

Question: Which inhibition [10] does the source give for `Cc1ccc(S(=O)(=O)Nc2ccc(-c3nnc(SCc4cccc(C(F)(F)F)c4)o3)cc2)cc1` here?
Answer: 80.4%

Question: And the IC50 [11]?
Answer: 23.9 µM

Source: ChEMBL document CHEMBL5107980, “Seeking heterocyclic scaffolds as antivirals against dengue virus” (Eur J Med Chem, 2022)
